Experimental data as given in PubChem BioAssay (NCI).
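GI50 = concentration required for 50% inhibition of growth. TGI is the concentration that stops growth completely.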

How the values were obtained:
Experiment in all cases: growth of human tumour cells (NCI), 384-well format
[1] = tested on: MCF7 breast
[2] = tested on: NCI-H23 lung
[3] = tested on: TK-10 renal
[4] = tested on: MALME-3M melanoma
[5] = tested on: NCI-H226 lung
[6] = tested on: SN12C renal
[7] = tested on: EKVX NSCLC
[8] = tested on: UACC-257 melanoma
[9] = tested on: SF-295 CNS
[10] = tested on: SK-MEL-2 melanoma
[11] = tested on: UACC-62 melanoma
[12] = tested on: HCT-15 colon
[13] = tested on: CCRF-CEM leukemia
[14] = tested on: OVCAR-5 ovarian
[15] = tested on: NCI-H460 NSCLC
[16] = tested on: SK-MEL-5 melanoma
[17] = tested on: HS 578T breast
[18] = tested on: PC-3 prostate
[19] = tested on: OVCAR-3 ovarian
[20] = tested on: MOLT-4 leukemia
[21] = tested on: NCI-H322M lung
[22] = tested on: SNB-75 CNS
[23] = tested on: MDA-MB-468 breast
[24] = tested on: SW-620 colon
[25] = tested on: SF-539 CNS
[26] = tested on: DU-145 prostate
[27] = tested on: HL-60(TB) leukemia
[28] = tested on: SK-MEL-28 melanoma
[29] = tested on: OVCAR-4 ovarian
[30] = tested on: HT29 colon
[31] = tested on: RPMI-8226 leukemia
[32] = tested on: NCI-H522 lung
[33] = tested on: RXF 393 renal
[34] = tested on: SF-268 CNS
[35] = tested on: HOP-62 NSCLC
[36] = tested on: U251 glioblastoma
[37] = tested on: OVCAR-8 ovarian
[38] = tested on: SNB-19 CNS
[39] = tested on: ACHN renal
[40] = tested on: MDA-MB-231 breast
[41] = tested on: M14 melanoma
[42] = tested on: 786-0 renal
[43] = tested on: KM12 colon
[44] = tested on: SR leukemia
[45] = tested on: A549 NSCLC
[46] = tested on: BT-549 breast
[47] = tested on: HOP-92 NSCLC
[48] = tested on: IGROV1 ovarian
[49] = tested on: A498 renal
[50] = tested on: NCI/ADR-RES ovarian
[51] = tested on: COLO 205 colon
[52] = tested on: T-47D breast
[53] = tested on: CAKI-1 renal
[54] = tested on: MDA-MB-435 melanoma
[55] = tested on: HCC-2998 colon
[56] = tested on: SK-OV-3 ovarian

With O=c1[nH]c(C2CCCN2)nc2c1oc1ccc(Cl)cc12 (configuration not stated) the GI50 [1] was over 100 µM, the TGI [1] was over 100 µM and the GI50 [2] was over 100 µM. The TGI [2] was over 100 µM, the GI50 [3] was over 100 µM and the TGI [3] was over 100 µM. For the same compound, the GI50 [4] was 14.8 µM, the TGI [4] was over 100 µM and the GI50 [5] was 49.5 µM. The TGI [5] was over 100 µM, the GI50 [6] was over 100 µM and the TGI [6] was over 100 µM. It also gave a GI50 [7] of 85 µM, a TGI [7] of over 100 µM and a GI50 [8] of over 100 µM. The TGI [8] was over 100 µM, the GI50 [9] was over 100 µM and the TGI [9] was over 100 µM. For the same compound, the GI50 [10] was over 100 µM, the TGI [10] was over 100 µM and the GI50 [11] was over 100 µM. It also gave a TGI [11] of over 100 µM, a GI50 [12] of over 100 µM and a TGI [12] of over 100 µM. The GI50 [13] was 18.2 µM, the TGI [13] was 37.8 µM and the GI50 [14] was over 100 µM. For the same compound, the TGI [14] was over 100 µM, the GI50 [15] was over 100 µM and the TGI [15] was over 100 µM. For the same compound, the GI50 [16] was 36.2 µM, the TGI [16] was over 100 µM and the GI50 [17] was over 100 µM. It also gave a TGI [17] of over 100 µM, a GI50 [18] of over 100 µM and a TGI [18] of over 100 µM. It also gave a GI50 [19] of over 100 µM, a TGI [19] of over 100 µM and a GI50 [20] of 31 µM. It also gave a TGI [20] of over 100 µM, a GI50 [21] of over 100 µM and a TGI [21] of over 100 µM. For the same compound, the GI50 [22] was 38.1 µM, the TGI [22] was over 100 µM and the GI50 [23] was 21.2 µM. The TGI [23] was 56.7 µM, the GI50 [24] was over 100 µM and the TGI [24] was over 100 µM. For the same compound, the GI50 [25] was 53.6 µM, the TGI [25] was over 100 µM and the GI50 [26] was over 100 µM. It also gave a TGI [26] of over 100 µM, a GI50 [27] of 29.8 µM and a TGI [27] of over 100 µM. For the same compound, the GI50 [28] was over 100 µM, the TGI [28] was over 100 µM and the GI50 [29] was 81.8 µM. It also gave a TGI [29] of over 100 µM, a GI50 [30] of over 100 µM and a TGI [30] of over 100 µM. It also gave a GI50 [31] of over 100 µM, a TGI [31] of over 100 µM and a GI50 [32] of 14.4 µM. The TGI [32] was 31 µM, the GI50 [33] was 21 µM and the TGI [33] was 43.1 µM. The GI50 [34] was over 100 µM, the TGI [34] was over 100 µM and the GI50 [35] was over 100 µM. The TGI [35] was over 100 µM, the GI50 [36] was over 100 µM and the TGI [36] was over 100 µM. It also gave a GI50 [37] of over 100 µM, a TGI [37] of over 100 µM and a GI50 [38] of over 100 µM. For the same compound, the TGI [38] was over 100 µM, the GI50 [39] was over 100 µM and the TGI [39] was over 100 µM. It also gave a GI50 [40] of 99.5 µM, a TGI [40] of over 100 µM and a GI50 [41] of 62.8 µM. It also gave a TGI [41] of over 100 µM, a GI50 [42] of over 100 µM and a TGI [42] of over 100 µM. The GI50 [43] was over 100 µM, the TGI [43] was over 100 µM and the GI50 [44] was 37.3 µM. The TGI [44] was over 100 µM, the GI50 [45] was over 100 µM and the TGI [45] was over 100 µM. The GI50 [46] was 29.3 µM, the TGI [46] was 78.4 µM and the GI50 [47] was 65.3 µM. It also gave a TGI [47] of over 100 µM, a GI50 [48] of over 100 µM and a TGI [48] of over 100 µM. It also gave a GI50 [49] of 58.5 µM, a TGI [49] of over 100 µM and a GI50 [50] of over 100 µM. The TGI [50] was over 100 µM, the GI50 [51] was 31.2 µM and the TGI [51] was 83 µM. The GI50 [52] was 19 µM, the TGI [52] was 35 µM and the GI50 [53] was 57 µM. The TGI [53] was over 100 µM, the GI50 [54] was over 100 µM and the TGI [54] was over 100 µM. The GI50 [55] was over 100 µM, the TGI [55] was over 100 µM and the GI50 [56] was over 100 µM. For the same compound, the TGI [56] was over 100 µM.
